Results from patent publication US8445636B2, “Antimicrobial and anticancer lipopeptides” (Yeda Research & Development Co. Ltd., priority 2003, dated 2013).
Values after ≈ are worked out from the molar mass of the structure shown. Read-outs that look alike come from different tables or passages of the source. Non-standard residues stand in square brackets, D forms with d. Residues, ends and D or L forms follow the SMILES beside them. *: point of attachment. Lauroyl = CCCCCCCCCCCC(=O)*

Assays:
Assay type in all cases: cell-based
E. coli D21 = test system: E. coli D21
[1] = test system: Acinetobacter baumannii ATCC 19606
Protocol: (§1) The antibacterial activity of the lipopeptides was examined in sterile 96-well plates (Nunc F96 microtiter plates) in a final volume of 100 μl as follows: Aliquots (50 μl) of a suspension containing bacteria at concentration of 1×10^6 Colony-Forming Units (CFU)/ml in culture LB (Lauria broth) medium (pH 7.4 or pH 5.5) were added to 50 μl of water containing the lipopeptide in serial 2-fold dilutions in water. Adjustment of the pH was done by diluted solutions of HCl and NaOH Inhibition of growth was determined by measuring the absorbance at 600 nm with a Microplate autoreader E1309 (Bio-Tek Instruments), after an incubation time of 18-20 h at 37° C. Antibacterial activities were expressed as the minimal inhibitory concentration (MIC), the concentration at which 100% inhibition of growth was observed after 18-20 h of incubation. The bacteria used were: Escherichia coli ATCC 25922, Acinetobacter baumannii ATCC 19606, Pseudomonas aeruginosa ATCC 27853, Staphylococcus aureus ATCC 6538P, Enterococcus faecalis ATCC 29212, Enterobacter cloacae ATCC 49141. The antibacterial activity of lipopeptides was also examined against resistant bacteria: methicilin-resistant Staphylococcus aureus (MRSA) ATCC 700698 and vancomycin-resistant Enterococcus faecium (VRE) ATCC 700221. If not indicated otherwise, the bacterial growth was detected at pH 7.4.

[2] = test system: Staphylococcus aureus ATCC 6538P
Protocol: as §1

[3] = test system: Escherichia coli ATCC 25922
Protocol: as §1

[4] = test system: Pseudomonas aeruginosa ATCC 27853
Protocol: as §1

[5] = test system: Aspergillus fumigatus ATCC 26430; assay: microbe, parasite or virus in culture
[6] = test system: Candida albicans ATCC 10231; assay: microbe, parasite or virus in culture
Protocol: (§2) The antifungal activity of the lipopeptides was examined in sterile 96-well plates (Nunc F96 microtiter plates) in a final volume of 200 μL as follows: 100 µl of a suspension containing fungi at a concentration of 1×10^4 Colony-Forming Units (CFU)/ml in culture medium (RPMI 1640, 0.165 M MOPS with L-glutamine, without NaHCO3) at pH 7.4 or pH 5.5 (adjustment of the pH was done by diluted solutions of HCl and NaOH) were added to 100 μl of water containing the peptide in serial 2-fold dilutions in water. The fungi were incubated in the presence of the lipopeptides for 24-48 h at 35° C. in a Binder KB115 incubator under agitation. Growth inhibition was determined by measuring the absorbance at 620 nm with a Microplate autoreader E1309 (Bio-Tek Instruments). Antifungal activity is expressed as the minimal inhibitory concentration (MIC), the concentration at which 100% inhibition of fungi growth was observed after the incubation time mentioned above. The fungi used were: Aspergillus niger ATCC 9642, Candida albicans ATCC 10231 and Cryptococcus neoformans ATCC 66031. If not indicated otherwise, the fungi growth was detected at pH 7.4.

[7] = test system: Cryptococcus neoformans ATCC 66031; assay: microbe, parasite or virus in culture
Protocol: as §2

[8] = test system: Cryptococcus neoformans ATCC MYA-422; assay: microbe, parasite or virus in culture; conditions: Cryptococcus neoformans; Table 9, short lipopeptides; pH 7.4; mean of 3 experiments, standard deviation of 25%; read-out: Minimal Inhibitory Concentration, Cyrptococcus neoformans (ATCC MYA-422)
[9] = ATCC 26430, pH 5.5, read-out: Minimal inhibitory concentrations, A. Fumig. With serum
[10] = ATCC 26430, pH 5.5, read-out: Minimal inhibitory concentrations, A. Fumig. Without serum
[11] = ATCC 26430, pH 7.4, read-out: Minimal inhibitory concentrations, A. Fumig. With serum
[12] = ATCC 26430, pH 7.4, read-out: Minimal inhibitory concentrations, A. Fumig. Without serum
[13] = ATCC 10231, pH 5.5, read-out: Minimal inhibitory concentrations, C. Albicans With serum
[14] = ATCC 10231, pH 5.5, read-out: Minimal inhibitory concentrations, C. Albicans Without serum
[15] = ATCC 10231, pH 7.4, read-out: Minimal inhibitory concentrations, C. Albicans With serum
[16] = ATCC 10231, pH 7.4, read-out: Minimal inhibitory concentrations, C. Albicans Without serum
[17] = ATCC 66031, pH 5.5, read-out: Minimal inhibitory concentrations, C. Neofor. With serum
[18] = ATCC 66031, pH 5.5, read-out: Minimal inhibitory concentrations, C. Neofor. Without serum
[19] = ATCC 66031, pH 7.4, read-out: Minimal inhibitory concentrations, C. Neofor. With serum
[20] = ATCC 66031, pH 7.4, read-out: Minimal inhibitory concentrations, C. Neofor. Without serum

| MIC [5, 9] [µM] | MIC [5, 10] [µM] | MIC [5, 11] [µM] | MIC [5, 12] [µM] | MIC [6, 13] [µM] | MIC [6, 14] [µM] | MIC [6, 15] [µM] | MIC [6, 16] [µM] | MIC [7, 17] [µM] | MIC [7, 18] [µM] | Structure (SMILES) | Minimal inhibitory concentrations, E. Coli D21 (E. coli D21; D21, pH 5.5) [µM] | Minimal inhibitory concentrations, E. Coli D21 (E. coli D21; D21, pH 7.4) [µM] | Minimal inhibitory concentrations, A. baumannii ATCC 19606 ([1]; ATCC 19606, pH 5.5) [µM] | Minimal inhibitory concentrations, A. baumannii ATCC 19606 ([1]; ATCC 19606, pH 7.4) [µM] | Minimal inhibitory concentrations, S. aureus II ATCC 6538P ([2]; ATCC 6538, pH 5.5) [µM] | Minimal inhibitory concentrations, S. aureus II ATCC 6538P ([2]; ATCC 6538, pH 7.4) [µM] | Minimal inhibitory concentrations, E. Coli ATCC 25922 ([3]; ATCC 25922, pH 5.5) [µM] | Minimal inhibitory concentrations, E. Coli ATCC 25922 ([3]; ATCC 25922, pH 7.4) [µM] | Minimal inhibitory concentrations, P. Aeruginosa ATCC 27853 ([4]; ATCC 27853, pH 5.5) [µM] | Minimal inhibitory concentrations, P. Aeruginosa ATCC 27853 ([4]; ATCC 27853, pH 7.4) [µM] | other results |
| --- | --- | --- | --- | --- | --- | --- | --- | --- | --- | --- | --- | --- | --- | --- | --- | --- | --- | --- | --- | --- | --- |
| 100 (≈ 176 µg/mL) | 6.25 (≈ 11 µg/mL) | 100 (≈ 176 µg/mL) | 25 (≈ 44 µg/mL) | >100 | 25 (≈ 44 µg/mL) | >100 | 12.5 (≈ 22 µg/mL) | 25 (≈ 44 µg/mL) | 1.56 (≈ 2.74 µg/mL) | CCCCCCCCCCCC(=O)N[C@H](CC(C)C)C(=O)N[C@@H](CCCNC(=N)N)C(=O)N[C@@H](Cc1c[nH]cn1)C(=O)N[C@H](CC(C)C)C(=O)N[C@H](CC(C)C)C(=O)N[C@@H](CCCNC(=N)N)C(=O)N[C@@H](Cc1c[nH]cn1)C(=O)N[C@H](CC(C)C)C(=O)N[C@H](CC(C)C)C(=O)N[C@@H](CCCNC(=N)N)C(=O)N[C@@H](Cc1c[nH]cn1)C(=O)N[C@H](CC(C)C)C(N)=O [lipopeptide 27, (CH3-(CH2)10-CO-)-D-Leu-Arg-His-D-Leu-D-Leu-Arg-His-D-Leu-D-Leu-Arg-His-D-Leu-NH2] (Lauroyl-[dL]RH[dL][dL]RH[dL][dL]RH[dL]-NH2) | 100 (≈ 176 µg/mL) | 100 (≈ 176 µg/mL) | >100 | 100 (≈ 176 µg/mL) | 100 (≈ 176 µg/mL) | 100 (≈ 176 µg/mL) | 100 (≈ 176 µg/mL) | 100 (≈ 176 µg/mL) | 100 (≈ 176 µg/mL) | 100 (≈ 176 µg/mL) | MIC [7, 19]: 25 µM (≈ 44 µg/mL); MIC [7, 20]: 3.125 µM (≈ 5.49 µg/mL) |
| 100 (≈ 167 µg/mL) | 12.5 (≈ 20.9 µg/mL) | 100 (≈ 167 µg/mL) | 25 (≈ 41.9 µg/mL) | >100 | 12.5 (≈ 20.9 µg/mL) | >100 | 12.5 (≈ 20.9 µg/mL) | 12.5 (≈ 20.9 µg/mL) | <0.78 | CCCCCCCCCCCC(=O)N[C@H](CC(C)C)C(=O)N[C@@H](CCCCN)C(=O)N[C@@H](Cc1c[nH]cn1)C(=O)N[C@H](CC(C)C)C(=O)N[C@H](CC(C)C)C(=O)N[C@@H](CCCCN)C(=O)N[C@@H](Cc1c[nH]cn1)C(=O)N[C@H](CC(C)C)C(=O)N[C@H](CC(C)C)C(=O)N[C@@H](CCCCN)C(=O)N[C@@H](Cc1c[nH]cn1)C(=O)N[C@H](CC(C)C)C(N)=O [lipopeptide 28, (CH3-(CH2)10-CO-)-D-Leu-Lys-His-D-Leu-D-Leu-Lys-His-D-Leu-D-Leu-Lys-His-D-Leu-NH2] (Lauroyl-[dL]KH[dL][dL]KH[dL][dL]KH[dL]-NH2) | >100 | 50 (≈ 83.7 µg/mL) | >100 | 50 (≈ 83.7 µg/mL) | >100 | 18.75 (≈ 31.4 µg/mL) | >100 | 100 (≈ 167 µg/mL) | >100 | 50 (≈ 83.7 µg/mL) | MIC [7, 19]: 6.25 µM (≈ 10.5 µg/mL); MIC [7, 20]: 1.56 µM (≈ 2.61 µg/mL) |
| – | – | – | – | – | – | – | – | – | – | C[C@@H]1[C@H](O)[C@@H](C)/C=C/C=C/C=C/C=C/C=C/C=C/C=C/[C@H](O[C@@H]2O[C@H](C)[C@@H](O)[C@H](N)[C@@H]2O)C[C@@H]2O[C@](O)(C[C@@H](O)C[C@@H](O)[C@H](O)CC[C@@H](O)C[C@@H](O)CC(=O)O[C@H]1C)C[C@H](O)[C@H]2C(=O)O [Amphotericin, reference compound] | – | – | – | – | – | – | – | – | – | – | MIC ([5]; Aspergillus fumigatus, ATCC26430, Table 9, short lipopeptides, pH 7.4, mean of 3 experiments, standard deviation of 25%, read-out: Minimal Inhibitory Concentration, Aspergillus Fomigatus (ATCC 26430)): 1.25 µM (≈ 1.16 µg/mL); MIC ([5]; Aspergillus fumigatus, ATCC26430, Table 12, with serum, pH 7.4, read-out: Minimal inhibitory concentrations, A. Fumig. With serum): < 0.78 µM; MIC ([5]; Aspergillus fumigatus, ATCC26430, Table 12, without serum, pH 7.4, read-out: Minimal inhibitory concentrations, A. Fumig. Without serum): 2.34 µM (≈ 2.16 µg/mL); MIC ([5]; Aspergillus fumigatus, ATCC26430, Table 13, pH 5.5, with serum, read-out: Minimal inhibitory concentrations, A. Fumig. With serum): < 0.78 µM; MIC ([5]; Aspergillus fumigatus, ATCC26430, Table 13, pH 5.5, without serum, read-out: Minimal inhibitory concentrations, A. Fumig. Without serum): 3.12 µM (≈ 2.89 µg/mL); MIC ([6]; Candida albicans, ATCC10231, Table 9, short lipopeptides, pH 7.4, mean of 3 experiments, standard deviation of 25%, read-out: Minimal Inhibitory Concentration, Candida Albicans (ATCC 10231)): 0.625 µM (≈ 0.578 µg/mL); MIC ([6]; Candida albicans, ATCC10231, Table 12, with serum, pH 7.4, read-out: Minimal inhibitory concentrations, C. Albicans With serum): 0.78 µM (≈ 0.721 µg/mL); MIC ([6]; Candida albicans, ATCC10231, Table 12, without serum, pH 7.4, read-out: Minimal inhibitory concentrations, C. Albicans Without serum): 3.12 µM (≈ 2.89 µg/mL); MIC ([6]; Candida albicans, ATCC10231, Table 13, pH 5.5, with serum, read-out: Minimal inhibitory concentrations, C. Albicans With serum): 0.78 µM (≈ 0.721 µg/mL); MIC ([6]; Candida albicans, ATCC10231, Table 13, pH 5.5, without serum, read-out: Minimal inhibitory concentrations, C. Albicans Without serum): 9.38 µM (≈ 8.66 µg/mL); MIC ([7]; Cryptococcus neoformans, ATCC66031, Table 12, with serum, pH 7.4, read-out: Minimal inhibitory concentrations, C. Neofor. With serum): < 0.78 µM; MIC ([7]; Cryptococcus neoformans, ATCC66031, Table 12, without serum, pH 7.4, read-out: Minimal inhibitory concentrations, C. Neofor. Without serum): < 0.78 µM; MIC ([7]; Cryptococcus neoformans, ATCC66031, Table 13, pH 5.5, with serum, read-out: Minimal inhibitory concentrations, C. Neofor. With serum): < 0.78 µM; MIC ([7]; Cryptococcus neoformans, ATCC66031, Table 13, pH 5.5, without serum, read-out: Minimal inhibitory concentrations, C. Neofor. Without serum): 3.12 µM (≈ 2.89 µg/mL); MIC [8]: 0.312 µM (≈ 0.288 µg/mL) |
